According to publication PMC11173529, “Structure–Activity Relationship Studies in a Series of Xanthine Inhibitors of SLACK Potassium Channels” (Molecules, 2024):

Target: T1, human G288S SLACK (Homo sapiens, UniProt Q5JUK3, G269S)
T1 construct: host or cells: CHO-K1
T1 sequence (Q5JUK3 1-1235 isoform Q5JUK3-3 G288S): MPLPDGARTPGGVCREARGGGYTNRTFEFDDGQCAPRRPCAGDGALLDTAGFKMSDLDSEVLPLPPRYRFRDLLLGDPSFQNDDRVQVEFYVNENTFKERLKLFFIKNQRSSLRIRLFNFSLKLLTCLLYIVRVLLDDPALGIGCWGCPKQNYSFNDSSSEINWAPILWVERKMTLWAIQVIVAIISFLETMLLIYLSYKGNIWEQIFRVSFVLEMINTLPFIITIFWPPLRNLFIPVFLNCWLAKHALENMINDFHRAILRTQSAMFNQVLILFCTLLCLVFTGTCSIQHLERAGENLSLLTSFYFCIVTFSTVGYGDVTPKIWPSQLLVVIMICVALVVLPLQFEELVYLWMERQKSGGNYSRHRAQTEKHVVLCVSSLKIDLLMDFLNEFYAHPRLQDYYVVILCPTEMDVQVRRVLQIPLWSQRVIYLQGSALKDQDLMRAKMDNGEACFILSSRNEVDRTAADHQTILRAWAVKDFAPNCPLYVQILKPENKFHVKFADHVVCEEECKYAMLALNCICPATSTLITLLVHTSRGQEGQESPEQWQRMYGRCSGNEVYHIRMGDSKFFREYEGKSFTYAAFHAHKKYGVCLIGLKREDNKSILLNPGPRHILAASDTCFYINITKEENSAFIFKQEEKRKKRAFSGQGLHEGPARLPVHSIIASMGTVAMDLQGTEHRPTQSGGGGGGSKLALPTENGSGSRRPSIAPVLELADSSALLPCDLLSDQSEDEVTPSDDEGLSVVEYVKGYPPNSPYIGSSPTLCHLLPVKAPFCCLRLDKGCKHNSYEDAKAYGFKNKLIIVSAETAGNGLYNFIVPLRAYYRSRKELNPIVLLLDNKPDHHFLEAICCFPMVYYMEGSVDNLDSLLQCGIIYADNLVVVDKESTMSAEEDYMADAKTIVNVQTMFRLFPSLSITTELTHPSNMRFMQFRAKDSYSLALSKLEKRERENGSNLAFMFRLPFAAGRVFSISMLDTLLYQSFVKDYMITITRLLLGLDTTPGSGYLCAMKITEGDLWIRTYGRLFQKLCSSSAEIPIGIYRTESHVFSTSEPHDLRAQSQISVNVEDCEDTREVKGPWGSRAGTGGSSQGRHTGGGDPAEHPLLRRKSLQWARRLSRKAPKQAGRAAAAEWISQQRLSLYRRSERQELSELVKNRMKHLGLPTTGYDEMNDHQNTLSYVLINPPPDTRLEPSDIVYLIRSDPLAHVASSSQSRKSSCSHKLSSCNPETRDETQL
Assay: Whole-cell APC in CHO cells stably expressing human G288S SLACK
Assay type: cell-based
Details: for IC50: APC, CHO cells; for Imax: maximum inhibition at 30 µM standardized to VU0606170 (100%)
Text: Development of a useful SLACK inhibitor in vivo tool will require potent activity at the corresponding mouse ortholog as studies in appropriate mouse models will be critical. Thus, we evaluated analogs 32 and 48 in our APC assay using CHO cells stably expressing mouse WT SLACK (Table 6). […] We were also eager to evaluate the same compounds with regard to their ability to inhibit clinically relevant GOF SLACK mutants. Both the C-terminus A934T mutant and transmembrane G288S mutant have been associated with clinical cases of EIMFS [3, 7].
Stably transfected monoclonal HEK293 cell lines expressing Slick, Maxi-K α1/β3, Maxi-K α1/β4, CaV3.2, GIRK 1/2, KV2.1, KV7.2, NaV1.7, and TASK-1 were generated as previously described. Stably transfected monoclonal HEK293 cell lines expressing hERG were generated as previously described. CHO-K1 cells expressing human Slack and disease-associated human Slack mutations, G288S and A934T, were generated by transfecting a PiggyBac TRE mammalian expression vector (VectorBuilder, Chicago, IL, USA) containing KCNT1. FuGENE 6 (Promega, Madison, WI, USA) transfection reagent and protocol, together with Opti-MEM (Thermo Fisher Scientific, Walkham, MA, USA), were utilized.
Automated patch-clamp recording was performed with a SyncroPatch 768 PE system (Nanion, Munich, Germany) as previously described. Whole-cell recordings were performed at room temperature. Cells were harvested by first washing with PBS without Mg^2+ or Ca^2+ (Gibco, Billings, MT, USA) to remove cell culture media, followed by dissociation with TryPLE (Gibco, Billings, MT, USA). Cells were then resuspended and diluted to 100,000 cells/mL in external solution. External solution contained 105 mM NaCl, 4 mM KCl, 1 mM MgCl2, 5 mM CaCl2, 10 mM HEPES, and 40 mM N-Methyl-D-glucamine chloride, titrated to pH of 7.4 and osmolarity of 300 mOsm/kg; internal solution contained 70 mM NaCl, 70 mM KF, 10 mM KCl, 5 mM EGTA, and 5 mM HEPES, titrated to a pH of 7.2 and osmolarity of 295 mOsm/kg.
The APC protocol was set as follows: Cells were held at a […] of −80 mV for 100 ms, then a ramp protocol was performed from −100 mV to 80 mV at 0.4 mV/ms, followed by holding the cell at −80 mV for another 100 ms, then steps were performed at −20 mV, 0 mV, +20 mV, +40 mV, and +60 mV for 100 ms of each step. Whole-cell currents were measured at 0 mV and normalized to current after external buffer addition. […] To obtain the concentration-response relationship graphs and IC50 values, we take the median value of the last 7 current amplitude values obtained for each set of data points collected for a given concentration at a particular step.

Compound | IC50 | Imax
CCCCN(Cc1cccc(F)c1)c1nc2c(c(=O)n(Cc3cccc(OC)c3)c(=O)n2C)n1C [Analog 78] | 880 nM | –
CN(Cc1cccc(F)c1)c1nc2c(c(=O)n(Cc3ccccc3)c(=O)n2C)n1C [Analog 48] | 750 nM | 100%
COc1cccc(Cn2c(=O)c3c(nc(N(C)Cc4ccccc4)n3C)n(C)c2=O)c1 [Analog 32] | 650 nM | 100%
COc1cccc(Cn2c(=O)c3c(nc(N(Cc4cccc(F)c4)CC4CC4)n3C)n(C)c2=O)c1 [Analog 79] | 1000 nM | –

The next lines start with results.

IC50 | Compound | Imax
710 nM | CCCCN(Cc1ccc(F)cc1)c1nc2c(c(=O)n(Cc3cccc(OC)c3)c(=O)n2C)n1C [Analog 80] | –
790 nM | COc1cccc(Cn2c(=O)c3c(nc(N(Cc4ccc(F)cc4)CC4CC4)n3C)n(C)c2=O)c1 [Analog 81] | –
